Where two headings read alike, the source gives them in different places.
Assays:
[1] = target: T1, full-length beta-Catenin (Uniprot ID P35222) (Homo sapiens, UniProt P35222); test: Fluorescence polarization IC50 (beta-catenin / 5FAM-TCF4 10-53 competition); assay type: binding; conditions: fluorescence polarization; read-out: beta-Catenin FP IC50
T1 construct: 10 nM full-length beta-Catenin (Uniprot ID P35222)
T1 sequence (P35222 1-781): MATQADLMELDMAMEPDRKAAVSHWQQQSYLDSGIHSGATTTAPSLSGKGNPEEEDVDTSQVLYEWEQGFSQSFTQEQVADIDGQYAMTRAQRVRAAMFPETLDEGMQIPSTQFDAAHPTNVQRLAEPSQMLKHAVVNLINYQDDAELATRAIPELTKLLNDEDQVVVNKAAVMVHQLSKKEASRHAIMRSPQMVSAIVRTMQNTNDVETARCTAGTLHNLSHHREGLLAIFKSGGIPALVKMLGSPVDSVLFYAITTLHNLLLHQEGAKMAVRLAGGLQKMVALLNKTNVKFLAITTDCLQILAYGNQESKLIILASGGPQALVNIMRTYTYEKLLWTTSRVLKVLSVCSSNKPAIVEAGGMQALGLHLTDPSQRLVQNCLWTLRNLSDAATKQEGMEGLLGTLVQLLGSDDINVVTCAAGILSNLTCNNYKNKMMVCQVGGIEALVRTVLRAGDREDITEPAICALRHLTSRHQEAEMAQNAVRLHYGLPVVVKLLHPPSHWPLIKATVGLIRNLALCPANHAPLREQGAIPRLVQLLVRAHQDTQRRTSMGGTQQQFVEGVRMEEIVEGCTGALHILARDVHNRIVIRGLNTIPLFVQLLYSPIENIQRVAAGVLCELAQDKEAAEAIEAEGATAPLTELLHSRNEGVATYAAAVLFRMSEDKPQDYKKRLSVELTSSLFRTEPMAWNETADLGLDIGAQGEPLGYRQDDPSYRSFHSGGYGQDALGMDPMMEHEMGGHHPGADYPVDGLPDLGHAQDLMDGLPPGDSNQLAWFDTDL

[2] = target: T2, beta-catenin/TCF4 engagement (Homo sapiens, UniProt P35222); test: Nano-BRET target engagement assay (B-cat-Halo & TCF4-Luc in HEK293 cells); assay type: cell-based; conditions: read-out: NanoBRET Abs IC50
T2 construct: expressed in transfected cells; host or cells: HEK293
T2 sequence (P35222 1-781): T1 sequence (P35222 1-781)

[3] = system: TCF/LEF luciferase Reporter in DLD1 cells; test: TCF reporter assay (DLD1 TCF/LEF luciferase reporter, Bright-Glo); assay type: cell-based; conditions: read-out: DLD1 4% Abs IC50
Procedure, shortened: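 DLD1 cells stably carrying a TCF/LEF luciferase reporter were plated at 5000 cells/well in RPMI + 4% FBS and treated overnight with a 1:2 compound dilution series. Bright-Glo luminescence read on day 3; viability by CellTiter-Glo. Absolute IC50 determined.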

[4] = DLD1 reporter, 4%, absolute IC50

SMILES | IC50 [1] | IC50 [2] | IC50 ([3]; DLD1 4%) | IC50 ([2]; absolute IC50) | IC50 [3, 4]
CC(=O)N1CCC[C@]12CC=CCCCC1(CCCC=CCCCOC(=O)N3CC[C@@](C(=O)N[C@@H](Cc4ccsc4)C(=O)N[C@@H](Cc4csc5ccccc45)C(=O)N[C@@H](CCC(N)=O)C(N)=O)(C3)NC(=O)[C@H](CC(C)C)NC(=O)[C@H](Cc3ccccc3)NC(=O)[C@H](C)NC(=O)[C@H](C)NC(=O)[C@H](Cn3cc(CC(=O)O)nn3)NC(=O)[C@H](CC(=O)O)NC1=O)NC(=O)[C@H](CC(C)(C)C)NC(=O)[C@H](CC(=O)O)NC2=O (stereo partly drawn) [I-2084, Ac-PL3-Asp-Npg-B5-Asp-[CH2CO2H]TriAzDap-Ala-Ala-Phe-Leu-PyrS2-3Thi-BztA-Gln-NH2] | 5 nM | 9200 nM | 9700 nM |  | 
CC(=O)N1CCC[C@]12CC=CCCCC1(CCCC=CCCCOC(=O)N3CC[C@@](C(=O)N[C@@H](Cc4ccsc4)C(=O)N[C@@H](Cc4csc5ccccc45)C(=O)N[C@@H](CC(N)=O)C(=O)N[C@@H](CC(C)C)C(=O)N[C@@H](CC(C)C)C(=O)N[C@@H](CC(C)C)C(N)=O)(C3)NC(=O)[C@H](CC(C)C)NC(=O)[C@H](Cc3ccccc3)NC(=O)[C@H](C)NC(=O)[C@H](C)NC(=O)[C@H](Cc3cccc(C(=O)O)c3)NC(=O)[C@H](CC(=O)O)NC1=O)NC(=O)[C@H](CC(C)(C)C)NC(=O)[C@H](CC(=O)O)NC2=O (stereo partly drawn) [I-2276, Ac-PL3-Asp-Npg-B5-Asp-3COOHF-Ala-Ala-Phe-Leu-PyrS2-3Thi-BztA-Asn-Leu-Leu-Leu-NH2] | 157 nM |  |  | 4000 nM | 3900 nM
CC(=O)N1CCC[C@]12CC=CCCCC1(CCCC=CCCCOC(=O)N3CC[C@@](C(=O)N[C@@H](Cc4ccccc4C(F)(F)F)C(=O)N[C@@H](Cc4csc5ccccc45)C(=O)N[C@@H](CO)C(N)=O)(C3)NC(=O)[C@H](CC(C)C)NC(=O)[C@H](Cc3ccccc3)NC(=O)[C@H](C)NC(=O)[C@H](C)NC(=O)[C@H](Cn3cc(C(C)(C)C(=O)O)nn3)NC(=O)[C@H](CC(=O)O)NC1=O)NC(=O)[C@H](CC(C)(C)C)NC(=O)[C@H](CC(=O)O)NC2=O (stereo partly drawn) [I-2374, Ac-PL3-Asp-Npg-B5-Asp-[CMe2CO2H]TriAzDap-Ala-Ala-Phe-Leu-PyrS2-2F3MeF-BztA-Ser-NH2] | 7 nM |  |  | 3400 nM | 2600 nM
CC(=O)N1CCC[C@]12CC=CCCCC1(CCCC=CCCCOC(=O)N3CC[C@@](C(=O)N[C@@H](Cc4ccccc4C(F)(F)F)C(=O)N[C@@H](Cc4csc5ccccc45)C(=O)N[C@@H](CCC(N)=O)C(=O)N[C@@H](CC(C)C)C(=O)N[C@@H](C)C(N)=O)(C3)NC(=O)[C@H](CC(C)C)NC(=O)[C@H](Cc3ccccc3)NC(=O)[C@H](C)NC(=O)[C@H](C)NC(=O)[C@H](Cc3cccc(C(=O)O)c3)NC(=O)[C@H](CC(=O)O)NC1=O)NC(=O)[C@H](CC(C)(C)C)NC(=O)[C@H](CC(=O)O)NC2=O (stereo partly drawn) [I-2378, Ac-PL3-Asp-Npg-B5-Asp-3COOHF-Ala-Ala-Phe-Leu-PyrS2-2F3MeF-BztA-Gln-Leu-Ala-NH2] | 31 nM |  |  | 4800 nM | 1000 nM
CC(=O)N1CCC[C@]12CC=CCCCC1(CCCC=CCCCOC(=O)N3CC[C@@](C(=O)N[C@@H](Cc4ccccc4C(F)(F)F)C(=O)N[C@@H](Cc4csc5ccccc45)C(=O)N[C@@H](CCC(N)=O)C(=O)N[C@@H](CC(C)C)C(=O)N[C@@H](CCC(N)=O)C(N)=O)(C3)NC(=O)[C@H](CC(C)C)NC(=O)[C@H](Cc3ccccc3)NC(=O)[C@H](C)NC(=O)[C@H](C)NC(=O)[C@H](Cc3cccc(C(=O)O)c3)NC(=O)[C@H](CC(=O)O)NC1=O)NC(=O)[C@H](CC(C)(C)C)NC(=O)[C@H](CC(=O)O)NC2=O (stereo partly drawn) [I-2382, Ac-PL3-Asp-Npg-B5-Asp-3COOHF-Ala-Ala-Phe-Leu-PyrS2-2F3MeF-BztA-Gln-Leu-Gln-NH2] | 37 nM |  |  | 4000 nM | 7600 nM
CC(=O)N1CCC[C@]12CC=CCCCC1(CCCC=CCCCOC(=O)N3CC[C@@](C(=O)N[C@@H](Cc4ccccc4C(F)(F)F)C(=O)N[C@@H](Cc4csc5ccccc45)C(=O)N[C@@H](CCC(N)=O)C(=O)N[C@@H](CC(C)C)C(=O)N[C@H](C(N)=O)[C@@H](C)O)(C3)NC(=O)[C@H](CC(C)C)NC(=O)[C@H](Cc3ccccc3)NC(=O)[C@H](C)NC(=O)[C@H](C)NC(=O)[C@H](Cc3cccc(C(=O)O)c3)NC(=O)[C@H](CC(=O)O)NC1=O)NC(=O)[C@H](CC(C)(C)C)NC(=O)[C@H](CC(=O)O)NC2=O (stereo partly drawn) [I-2383, Ac-PL3-Asp-Npg-B5-Asp-3COOHF-Ala-Ala-Phe-Leu-PyrS2-2F3MeF-BztA-Gln-Leu-Thr-NH2] | 77 nM |  |  | 4200 nM | 800 nM
CC(=O)N1CCC[C@]12CC=CCCCC1(CCCC=CCCCOC(=O)N3CC[C@@](C(=O)N[C@@H](Cc4ccccc4C(F)(F)F)C(=O)N[C@@H](Cc4csc5ccccc45)C(=O)N[C@@H](CCC(N)=O)C(=O)N[C@@H](CC(C)C)C(=O)N[C@@H](CO)C(N)=O)(C3)NC(=O)[C@H](CC(C)C)NC(=O)[C@H](Cc3ccccc3)NC(=O)[C@H](C)NC(=O)[C@H](C)NC(=O)[C@H](Cc3cccc(C(=O)O)c3)NC(=O)[C@H](CC(=O)O)NC1=O)NC(=O)[C@H](CC(C)(C)C)NC(=O)[C@H](CC(=O)O)NC2=O (stereo partly drawn) [I-2384, Ac-PL3-Asp-Npg-B5-Asp-3COOHF-Ala-Ala-Phe-Leu-PyrS2-2F3MeF-BztA-Gln-Leu-Ser-NH2] | 5 nM |  |  | 4600 nM | 1100 nM
CC[C@H](C)[C@H](NC(=O)[C@H](CC(C)C)NC(=O)[C@H](CCC(N)=O)NC(=O)[C@H](Cc1csc2ccccc12)NC(=O)[C@H](Cc1ccccc1C(F)(F)F)NC(=O)[C@]12CCN(C1)C(=O)OCCCC=CCCCC1(CCCC=CC[C@]3(CCCN3C(C)=O)C(=O)N[C@@H](CC(=O)O)C(=O)N[C@@H](CC(C)(C)C)C(=O)N1)C(=O)N[C@@H](CC(=O)O)C(=O)N[C@@H](Cc1cccc(C(=O)O)c1)C(=O)N[C@@H](C)C(=O)N[C@@H](C)C(=O)N[C@@H](Cc1ccccc1)C(=O)N[C@@H](CC(C)C)C(=O)N2)C(N)=O (stereo partly drawn) [I-2385, Ac-PL3-Asp-Npg-B5-Asp-3COOHF-Ala-Ala-Phe-Leu-PyrS2-2F3MeF-BztA-Gln-Leu-Ile-NH2] | 563 nM |  |  | 4000 nM | 1800 nM
CC(=O)N1CCC[C@]12CC=CCCCC1(CCCC=CCCCOC(=O)N3CC[C@@](C(=O)N[C@@H](Cc4ccccc4C(F)(F)F)C(=O)N[C@@H](Cc4csc5ccccc45)C(=O)N[C@@H](CCC(N)=O)C(=O)N[C@@H](CC(C)C)C(=O)NC(C)(C)C(N)=O)(C3)NC(=O)[C@H](CC(C)C)NC(=O)[C@H](Cc3ccccc3)NC(=O)[C@H](C)NC(=O)[C@H](C)NC(=O)[C@H](Cc3cccc(C(=O)O)c3)NC(=O)[C@H](CC(=O)O)NC1=O)NC(=O)[C@H](CC(C)(C)C)NC(=O)[C@H](CC(=O)O)NC2=O (stereo partly drawn) [I-2386, Ac-PL3-Asp-Npg-B5-Asp-3COOHF-Ala-Ala-Phe-Leu-PyrS2-2F3MeF-BztA-Gln-Leu-Aib-NH2] | 75.5 nM |  |  | 2800 nM | 700 nM
CC(=O)N1CCC[C@]12CC=CCCCC1(CCCC=CCCCOC(=O)N3CC[C@@](C(=O)N[C@@H](Cc4ccccc4C(F)(F)F)C(=O)N[C@@H](Cc4csc5ccccc45)C(=O)N[C@@H](CCC(N)=O)C(=O)N[C@@H](CC(C)C)C(=O)NC4(C(N)=O)CCC4)(C3)NC(=O)[C@H](CC(C)C)NC(=O)[C@H](Cc3ccccc3)NC(=O)[C@H](C)NC(=O)[C@H](C)NC(=O)[C@H](Cc3cccc(C(=O)O)c3)NC(=O)[C@H](CC(=O)O)NC1=O)NC(=O)[C@H](CC(C)(C)C)NC(=O)[C@H](CC(=O)O)NC2=O (stereo partly drawn) [I-2388, Ac-PL3-Asp-Npg-B5-Asp-3COOHF-Ala-Ala-Phe-Leu-PyrS2-2F3MeF-BztA-Gln-Leu-Cbg-NH2] | 133 nM |  |  | 5700 nM | 1200 nM
CC(=O)N1CCC[C@]12CC=CCCCC1(CCCC=CCCCOC(=O)N3CC[C@@](C(=O)N[C@@H](Cc4ccccc4C(F)(F)F)C(=O)N[C@@H](Cc4csc5ccccc45)C(=O)N[C@@H](CCC(N)=O)C(=O)N[C@@H](CC(C)C)C(=O)N[C@@H](CC(N)=O)C(N)=O)(C3)NC(=O)[C@H](CC(C)C)NC(=O)[C@H](Cc3ccccc3)NC(=O)[C@H](C)NC(=O)[C@H](C)NC(=O)[C@H](Cc3cccc(C(=O)O)c3)NC(=O)[C@H](CC(=O)O)NC1=O)NC(=O)[C@H](CC(C)(C)C)NC(=O)[C@H](CC(=O)O)NC2=O (stereo partly drawn) [I-2390, Ac-PL3-Asp-Npg-B5-Asp-3COOHF-Ala-Ala-Phe-Leu-PyrS2-2F3MeF-BztA-Gln-Leu-Asn-NH2] | 22 nM |  |  | 9100 nM | 1400 nM

— patent publication US20240116985A1, “STAPLED PEPTIDES AND METHODS THEREOF” (priority 2020, published 2024)
